These results are taken from ChEMBL document CHEMBL1201862, “PubChem BioAssay data set” (2004).

Activity calls are given as the source filed them.

For experiment [1], the target named is Scavenger receptor class B member 1 (Mus musculus, UniProt Q61009). In words: inhibitors of SR-BI mediated HDL lipid uptake, dose response, ldlA[mSR-BI] cells, fluorescence, cherry pick (AID 493194).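 Also: cellular uptake of fluorescent DiI-labeled HDL measured as cell fluorescence.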 It is filed as functional, cell-based.
The subject of experiment [2] is BJ. In words: cytotoxicity toward BJ-TERT fibroblasts, dose response, cell-based, RAS-independent, luminescence (AID 1933). The format is functional. To be noted: Homo sapiens.
A short description of experiment [3]: cytotoxicity toward DRD oncogenic fibroblasts, dose response, cell-based, non-viral oncogenic, luminescence (AID 1934). It is filed as functional. To be noted: Homo sapiens.
A short description of experiment [4]: Luminescence Cell-Based Dose Response HTS to Identify Inhibitors of 5'UTR Stem-Loop Driven Prion Protein mRNA Translation in H4 Neuroglioblastoma Cells. [Related pubchem assays: 1827 (Project Summary), 1813 (Primary HTS)]. It is filed as functional.
A further experiment can be described thus: cells. It is filed as functional, cell-based.
The nature of experiment [5]: luciferase reporter signal reduction – luminescence, H4-C neuroglioblastoma cells, dose response (AID 2458).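 Also: H4 neuroglioblastoma cells stably carrying a luciferase reporter gene fusion.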 The format is functional, cell-based. For orientation: A reporter such as luciferase makes a cellular process visible.
The nature of experiment [6]: inhibitors of SNCA 5'UTR-driven translation, confirmation, luminescence, H4 neuroglioblastoma cells, dose confirmation (AID 2454).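 Also: H4 neuroglioblastoma cells carrying an alpha-synuclein 5'UTR luciferase reporter; potency for inhibition of the luciferase signal.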 The format is functional, cell-based.
Experiment [7] concerns BJ. In words: cytotoxicity toward BJ-TERT-LT-ST fibroblasts, dose response, cell-based, RAS-independent, luminescence (AID 1935).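 Also: BJ fibroblasts immortalized with TERT plus LT and ST oncogenes.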 The format is functional. The conditions noted are these: Homo sapiens.
A short description of experiment [8]: ADAM10 protease inhibitors, dose response, selectivity assay for ADAM17 exosite inhibitor project, biochemical, FRET peptide substrate, recombinant human ADAM10 (AID 743259).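 Also: ADAM10 enzyme cleaving a FRET peptide substrate.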
Experiment [9] can be described thus: inhibitors of SNCA 5'UTR-driven reporter translation, confirmation, H4 neuroglioma cells, luminescence (AID 1988). It is filed as functional, cell-based.
Experiment [10] can be described thus: cytotoxicity in HEK-293T cells, dose response, cytotoxicity control for TCR NF-kB inhibitor project, luminescence, T-cell screen hits (AID 489026).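 Also: cells exposed to compound about 14 hours before the viability readout.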 It is filed as functional, cell-based.
For experiment [11], the system named is BJ. Briefly: cells. It is filed as functional, cell-based. To be noted: Homo sapiens.
Experiment [12] deals with Disintegrin and metalloproteinase domain-containing protein 17 (Homo sapiens, UniProt P78536). In words: exosite inhibitors of ADAM17, dose response, biochemical (AID 743260).
Experiment [13] addresses Dual specificity protein phosphatase 3 (Homo sapiens, UniProt P51452). In words: VHR1 inhibitor Ki determination, SAR follow-up, biochemical, colorimetric (AID 2004).
Experiment [14] addresses G-protein coupled receptor 35 (Homo sapiens, UniProt Q9HC97). In words: GPR35 antagonists blocking zaprinast-driven arrestin recruitment, primary screen, imaging, U2OS, beta-arrestin-GFP, zaprinast agonist (AID 2058).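 Also: antagonist potency meaning inhibition of agonist-induced arrestin redistribution.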 It is filed as functional. A general note: Recruitment of arrestin is a read-out of receptor activation apart from second messengers.
In the next experiment the target is Interleukin-8 (Homo sapiens, UniProt P10145). Briefly: SAR analysis of tumor necrosis factor alpha (TNF-alpha) induced IL-8 secretion in MCF-7/NOD1 cells. [Related pubchem assays (depositor defined):AID1575, AID2250, AID2260]. It is filed as functional, cell-based.
In the next experiment the test system is HEK293. Briefly: cells. The conditions noted are these: Homo sapiens.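 Also: cells exposed to compound for 14 hours overnight before viability readout.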
The next experiment has as its target Tumor necrosis factor (Homo sapiens, UniProt P01375). Briefly: TNFa-triggered NF-kB activation inhibitors, SAR follow-up, cell-based, revised (AID 2337). The format is functional.

Tumor necrosis factor, sequence (P01375 whole entry): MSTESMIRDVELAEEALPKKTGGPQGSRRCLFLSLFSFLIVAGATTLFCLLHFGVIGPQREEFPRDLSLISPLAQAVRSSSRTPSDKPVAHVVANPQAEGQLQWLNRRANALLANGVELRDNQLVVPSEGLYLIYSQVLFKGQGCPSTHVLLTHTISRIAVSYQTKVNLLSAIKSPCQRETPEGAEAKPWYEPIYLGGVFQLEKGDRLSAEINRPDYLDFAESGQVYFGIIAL
Interleukin-8, sequence (P10145 whole entry): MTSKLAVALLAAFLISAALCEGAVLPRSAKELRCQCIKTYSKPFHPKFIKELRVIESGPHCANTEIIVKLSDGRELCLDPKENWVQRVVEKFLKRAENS
Disintegrin and metalloproteinase domain-containing protein 17, sequence (P78536 whole entry, the tested form may be a part): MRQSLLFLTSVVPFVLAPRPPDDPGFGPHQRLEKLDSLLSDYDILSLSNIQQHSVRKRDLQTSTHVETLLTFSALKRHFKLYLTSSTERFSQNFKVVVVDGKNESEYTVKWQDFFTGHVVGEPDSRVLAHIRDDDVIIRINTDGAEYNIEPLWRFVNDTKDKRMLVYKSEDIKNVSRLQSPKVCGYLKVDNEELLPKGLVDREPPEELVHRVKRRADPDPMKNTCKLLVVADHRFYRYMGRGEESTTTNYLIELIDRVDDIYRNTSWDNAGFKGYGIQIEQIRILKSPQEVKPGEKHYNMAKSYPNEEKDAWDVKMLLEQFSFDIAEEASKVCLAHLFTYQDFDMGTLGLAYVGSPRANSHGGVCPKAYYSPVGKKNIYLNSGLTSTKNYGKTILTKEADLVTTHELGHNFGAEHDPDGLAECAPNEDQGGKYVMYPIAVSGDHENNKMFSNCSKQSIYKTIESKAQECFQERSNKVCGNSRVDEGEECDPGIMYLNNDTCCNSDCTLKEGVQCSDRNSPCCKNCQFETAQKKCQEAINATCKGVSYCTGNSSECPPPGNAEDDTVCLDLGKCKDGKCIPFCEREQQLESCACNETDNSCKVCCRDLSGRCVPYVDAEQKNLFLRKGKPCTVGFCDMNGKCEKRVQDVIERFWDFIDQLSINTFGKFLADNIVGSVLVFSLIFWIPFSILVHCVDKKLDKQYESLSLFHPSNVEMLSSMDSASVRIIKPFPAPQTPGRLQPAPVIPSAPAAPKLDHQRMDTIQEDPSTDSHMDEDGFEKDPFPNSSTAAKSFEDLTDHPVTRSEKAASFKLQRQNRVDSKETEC
G-protein coupled receptor 35, sequence (Q9HC97 whole entry): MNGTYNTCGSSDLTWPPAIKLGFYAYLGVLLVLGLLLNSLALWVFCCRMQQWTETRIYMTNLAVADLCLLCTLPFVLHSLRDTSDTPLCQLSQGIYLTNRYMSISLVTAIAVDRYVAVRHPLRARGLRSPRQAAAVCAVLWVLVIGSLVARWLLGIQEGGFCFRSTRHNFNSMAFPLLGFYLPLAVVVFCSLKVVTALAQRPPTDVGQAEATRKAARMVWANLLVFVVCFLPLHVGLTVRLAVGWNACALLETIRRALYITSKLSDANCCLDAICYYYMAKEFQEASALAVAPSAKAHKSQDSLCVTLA
Dual specificity protein phosphatase 3, sequence (P51452 whole entry): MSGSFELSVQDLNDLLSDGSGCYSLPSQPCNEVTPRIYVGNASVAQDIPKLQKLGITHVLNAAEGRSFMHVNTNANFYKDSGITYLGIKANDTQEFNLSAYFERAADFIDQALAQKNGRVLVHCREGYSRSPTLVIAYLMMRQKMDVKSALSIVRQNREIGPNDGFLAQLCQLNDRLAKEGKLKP
Scavenger receptor class B member 1, sequence (Q61009 whole entry): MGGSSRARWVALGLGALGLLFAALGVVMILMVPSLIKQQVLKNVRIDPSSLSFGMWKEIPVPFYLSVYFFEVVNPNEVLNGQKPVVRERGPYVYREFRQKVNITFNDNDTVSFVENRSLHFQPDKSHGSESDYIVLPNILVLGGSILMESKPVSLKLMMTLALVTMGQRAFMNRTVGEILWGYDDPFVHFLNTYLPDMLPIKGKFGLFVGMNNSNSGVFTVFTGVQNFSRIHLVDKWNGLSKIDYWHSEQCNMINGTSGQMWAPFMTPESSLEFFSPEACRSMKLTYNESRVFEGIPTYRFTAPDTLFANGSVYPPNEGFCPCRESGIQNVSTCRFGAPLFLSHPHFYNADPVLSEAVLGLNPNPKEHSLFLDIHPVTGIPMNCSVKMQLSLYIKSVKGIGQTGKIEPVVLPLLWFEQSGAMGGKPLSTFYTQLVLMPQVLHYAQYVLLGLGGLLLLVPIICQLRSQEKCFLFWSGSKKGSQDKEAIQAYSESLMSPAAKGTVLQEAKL

As to `COc1cc(NC(=O)c2cc(-c3ccccc3Cl)on2)cc(OC)c1OC`, in experiment [1], the concentration at half-maximal activity (AC50) (usually the midpoint of the concentration-response curve, whichever way the signal moves) is 32 µM (active).
`Cc1cc(C)c(S(=O)(=O)Nc2ccc3c4c(cccc24)CC3)c(C)c1`: the EC50 – broadly, the concentration that produces a half-maximal response – with BJ [2] is 0.288 µM (active); in experiment [3], 0.383 µM (inconclusive); in experiment [4], 9.52 µM (active); in “cells” it was 2.97 µM (active); in [5] it was 1.06 µM (active); in experiment [6], 1.2 µM (active). The EC50 was 0.246 µM (inconclusive) in the experiment with BJ [7], < 0.1 µM (active) in experiment [9] and 2.1 µM (inconclusive) with BJ [11]. The IC50 – broadly, the point on the concentration scale where inhibition reaches its midpoint – is > 69.5 µM (inactive) in experiment [8], > 80 µM (inactive) in experiment [10] and > 69.5 µM (inactive) in experiment [12].
As for `O=C1NC(=S)N(c2ccc(Cl)cc2)C(=O)/C1=C/c1ccc(-c2ccccc2C(=O)O)o1`, the Ki (commonly the dissociation constant of the complex between target and ligand, obtained from inhibition or displacement) in experiment [13] is 36.6 µM (inactive).
As for `C=CCCCCCCCCc1nnc(SCC(=O)O)[nH]1`, in [14], the concentration for half-maximal inhibition (IC50) is 0.553 µM (active).
Take `Nc1nc2ccccc2n1S(=O)(=O)c1ccccc1`: the IC50 was > 5 µM (inactive) on Interleukin-8, > 20 µM (inactive) with HEK293 and > 20 µM (inactive) on Tumor necrosis factor.
